{"source": "patent US20230414510A1", "about": "(CRITITECH, INC., priority 2020, published 2023)", "key": {"[1]": {"test": "Particle size distribution (PSD) by laser diffraction, Malvern Mastersizer 3000 Aero S", "format": "physicochemical", "settings": "for Mean Geometric Particle size Dv50: Table 8", "procedure": "(§1) Approximately 63 precipitation runs (approximately 500 mg to 10 grams) were conducted on the RC612B precipitation unit, according to examples provided above. Variables modified between each precipitation are detailed in Tables 1-3 below. The precipitates were analyzed by laser diffraction to determine PSD, BET sorptometry to determine SSA, and SEM to determine habit and support PSD and SSA data.\nPSD analyses were conducted on a Malvern Mastersizer™ 3000 using the Aero S™ dispersion unit according to manufacturer's instructions."}, "[2]": {"test": "Specific surface area (SSA) by BET sorptometry", "format": "physicochemical", "settings": "for Surface Area: Table 8", "procedure": "The BET specific surface area test procedure is a compendial method included in both the United States Pharmacopeia and the European Pharmacopeia.\nas §1\nSSA determination analyses were conducted on a Porous Materials, Inc., Automated BET Sorptometer BET-202A according to manufacturer's instructions."}, "[3]": {"test": "Bulk density (not tapped)", "format": "physicochemical", "source_text": "As used herein, the bulk density (not tapped) of a particle is the ratio of the mass to the volume (including the interparticulate void volume) of an untapped powder sample."}, "Tapped density": {"test": "Tapped density", "format": "physicochemical", "settings": "for Bulk Tapped Density: Table 8", "source_text": "As used herein, the tapped density of a particle is obtained by mechanically tapping a graduated cylinder containing the sample until little further volume change is observed."}, "[4]": {"test": "Mass median aerodynamic diameter (MMAD) of aerosol, rotating brush generator and TSI Aerodynamic Particle Sizer 3321", "format": "physicochemical", "settings": "for GSD: second figure of the MMAD/GSD cell"}, "[5]": {"test": "Dissolution in 40% isopropanol 37° C., rotating paddle 50 rpm", "format": "physicochemical", "procedure": "Exemplary processed products were also used for dissolution for comparison to unprocessed/raw material. Dissolution studies were carried out in 40% isopropanol 37° C. with a rotating paddle at 50 rpm."}, "[6]": {"molecular_target": "T1, TMEM16A (Anoctamin-1, Ano1) (Homo sapiens, UniProt Q5XXA6)", "T1 sequence (Q5XXA6 1-986)": "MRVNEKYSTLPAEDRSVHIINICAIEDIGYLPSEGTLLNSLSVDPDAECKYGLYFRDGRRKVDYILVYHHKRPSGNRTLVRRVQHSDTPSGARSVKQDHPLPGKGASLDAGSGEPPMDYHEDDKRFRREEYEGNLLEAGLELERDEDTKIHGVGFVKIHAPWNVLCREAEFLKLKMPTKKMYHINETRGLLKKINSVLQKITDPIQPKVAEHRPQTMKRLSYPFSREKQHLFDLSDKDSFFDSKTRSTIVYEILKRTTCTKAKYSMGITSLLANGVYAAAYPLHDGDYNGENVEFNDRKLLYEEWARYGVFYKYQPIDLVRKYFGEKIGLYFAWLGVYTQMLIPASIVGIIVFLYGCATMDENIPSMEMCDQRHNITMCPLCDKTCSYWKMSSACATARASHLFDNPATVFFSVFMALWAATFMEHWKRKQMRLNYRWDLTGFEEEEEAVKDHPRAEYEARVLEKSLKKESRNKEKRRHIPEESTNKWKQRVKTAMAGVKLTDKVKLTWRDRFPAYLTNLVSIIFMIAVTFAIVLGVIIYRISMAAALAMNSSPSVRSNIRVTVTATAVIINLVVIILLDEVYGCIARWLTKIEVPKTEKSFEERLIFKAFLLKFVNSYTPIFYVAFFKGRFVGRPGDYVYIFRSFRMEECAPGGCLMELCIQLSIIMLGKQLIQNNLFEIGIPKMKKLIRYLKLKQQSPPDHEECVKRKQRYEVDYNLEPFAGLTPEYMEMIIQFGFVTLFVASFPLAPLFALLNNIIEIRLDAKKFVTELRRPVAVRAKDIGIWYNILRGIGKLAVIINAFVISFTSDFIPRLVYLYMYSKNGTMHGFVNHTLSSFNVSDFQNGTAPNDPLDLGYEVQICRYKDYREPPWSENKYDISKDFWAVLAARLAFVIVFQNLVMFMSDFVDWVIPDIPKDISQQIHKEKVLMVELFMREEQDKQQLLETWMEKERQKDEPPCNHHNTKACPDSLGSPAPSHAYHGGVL", "settings": "Miner et al., 2019; cited from earlier work"}, "[7]": {"settings": "intravenous; Andrews et al., 1982; Schweizer et al., 2018; cited from earlier work"}, "[8]": {"settings": "listed as Milled (micronized) Niclosamide Drug Substance"}, "[9]": {"settings": "volume distribution, unit not given in Tables 1-3, 6, 7"}}, "data": [{"smiles": "O=C(Nc1ccc([N+](=O)[O-])cc1Cl)c1cc(Cl)ccc1O", "note": "[Micronized Niclosamide API, niclosamide]", "values": [{"measurement": "Mean Geometric Particle size Dv50", "setting": "[1]; [8]", "result": 2.97, "unit": "microns"}, {"measurement": "PSD-Mastersizer Dv-10", "setting": "[1]; [9]", "result": 0.765}, {"measurement": "PSD-Mastersizer Dv-50", "setting": "[1]; [9]", "result": 2.97}, {"measurement": "PSD-Mastersizer Dv-90", "setting": "[1]; [9]", "result": 6.39}, {"measurement": "Surface Area", "setting": "[2]; [8]", "result": 3.264, "unit": "m2/gm"}, {"measurement": "Bulk Density", "setting": "[3]; Table 8, listed as Milled (micronized) Niclosamide Drug Substance", "result": 0.49, "unit": "gm/cm3"}, {"measurement": "Bulk Density", "setting": "[3]; not tapped, Tables 1-3 print no unit", "result": 0.486}, {"measurement": "Bulk Tapped Density", "setting": "Tapped density; [8]", "result": 0.62, "unit": "gm/cm3"}, {"measurement": "Tapped Density", "setting": "Tapped density; Tables 1-3 print no unit", "result": 0.619}, {"measurement": "GSD", "setting": "[4]; [8]", "result": 1.74}, {"measurement": "Dissolution in 40% isopropanol 37C 50 rpm rotating paddle", "setting": "[5]; 5 min, listed as Milled (micronized) Niclosamide Drug Substance", "result": 2.9, "unit": "%"}, {"measurement": "Dissolution in 40% isopropanol 37C 50 rpm rotating paddle", "setting": "[5]; 15 min, listed as Milled (micronized) Niclosamide Drug Substance", "result": 4.7, "unit": "%"}, {"measurement": "Dissolution in 40% isopropanol 37C 50 rpm rotating paddle", "setting": "[5]; 30 min, listed as Milled (micronized) Niclosamide Drug Substance", "result": 8.4, "unit": "%"}, {"measurement": "Dissolution in 40% isopropanol 37C 50 rpm rotating paddle", "setting": "[5]; 60 min, listed as Milled (micronized) Niclosamide Drug Substance", "result": 12.7, "unit": "%"}, {"measurement": "Dissolution in 40% isopropanol 37C 50 rpm rotating paddle", "setting": "[5]; 90 min, listed as Milled (micronized) Niclosamide Drug Substance", "result": 17.3, "unit": "%"}, {"measurement": "Dissolution in 40% isopropanol 37C 50 rpm rotating paddle", "setting": "[5]; 120 min, listed as Milled (micronized) Niclosamide Drug Substance", "result": 23.3, "unit": "%"}]}, {"smiles": "NCCO.O=C(Nc1ccc([N+](=O)[O-])cc1Cl)c1cc(Cl)ccc1O", "note": "[Niclosamide ethanolamine, niclosamide ethanolamine]", "values": [{"measurement": "SSA", "setting": "[2]; BET, Tables 4, 5", "result": 2.684, "unit": "m^2/g"}]}, {"smiles": "O=C(Nc1ccc([N+](=O)[O-])cc1Cl)c1cc(Cl)ccc1O", "note": "[Niclosamide Drug Substance, niclosamide]", "values": [{"measurement": "Mean Geometric Particle size Dv50", "setting": "[1]", "result": 21.1, "unit": "microns"}, {"measurement": "Surface Area", "setting": "[2]", "result": 1.359, "unit": "m2/gm"}, {"measurement": "Bulk Density", "setting": "[3]; Table 8", "result": 0.45, "unit": "gm/cm3"}, {"measurement": "Bulk Tapped Density", "setting": "Tapped density", "result": 0.57, "unit": "gm/cm3"}, {"measurement": "MMAD", "setting": "[4]; aerosol from rotating brush generator", "result": 2.64, "unit": "microns"}, {"measurement": "GSD", "setting": "[4]", "result": 1.82}, {"measurement": "Dissolution in 40% isopropanol 37C 50 rpm rotating paddle", "setting": "[5]; 5 min", "result": 1.7, "unit": "%"}, {"measurement": "Dissolution in 40% isopropanol 37C 50 rpm rotating paddle", "setting": "[5]; 15 min", "result": 3.8, "unit": "%"}, {"measurement": "Dissolution in 40% isopropanol 37C 50 rpm rotating paddle", "setting": "[5]; 30 min", "result": 6.5, "unit": "%"}, {"measurement": "Dissolution in 40% isopropanol 37C 50 rpm rotating paddle", "setting": "[5]; 60 min", "result": 11.2, "unit": "%"}, {"measurement": "Dissolution in 40% isopropanol 37C 50 rpm rotating paddle", "setting": "[5]; 90 min", "result": 15, "unit": "%"}, {"measurement": "Dissolution in 40% isopropanol 37C 50 rpm rotating paddle", "setting": "[5]; 120 min", "result": 20.6, "unit": "%"}, {"measurement": "Inhibition of TMEM16A", "setting": "[6]", "result": "potent inhibitor"}, {"measurement": "Toxicity when administered intravenously", "setting": "[7]", "result": "substantial toxicity"}]}]}
